Reference: patent US20250223559A1, “AXIOLOID: A STEM CELL-BASED MODEL OF HUMAN AXIAL DEVELOPMENT” (KYOTO UNIVERSITY, priority 2022, published 2025)

Assays:
[1] = test system: segmentation clock gene HES7; assay: HES7:Luciferase reporter oscillation of the segmentation clock in Axioloids; type: cell-based, human; conditions: RA, RAL or ROL, with or without MG
Description: Bioluminescence live-cell imaging of HES7-reporter (201B7Luc) iPSC-derived human Axioloids (201B7Luc) was performed and signal was quantified as previously described^55,56 Briefly, one day before imaging glass-bottom 96-well plates (Iwaki) were coated with 50 μl of 1.5% PVA (Nacalai), the PVA solution was hereby aspirated and the plates dried on top of a clean bench overnight at room temperature. Prior to imaging, Axioloids were set onto coated glass-bottom 96-well plates with 80 μl of AK02N-C medium containing […] D-Luciferin and 10% Matrigel. Small molecule agonists and antagonists of signaling pathways were added according to the experimental setup. Bioluminescence signals of Axioloids induced from the HES7-reporter cell line were recorded on IX83 (Olympus) equipped with iXon EMCCD camera (Andor) cultured in a stage top incubator (Tokai Hit). Signal was acquired with 2×2 binning and 1 min exposure. Cosmic rays were removed from the raw images by applying spike noise filter, then smoothed by median filter. Temporal fluctuation of signal baseline was corrected by background subtraction. Kymograph was generated by averaging luminescence intensity values along the lateral axis of Axioloids and resulted values were aligned in temporal order.
Periodicity of HES7 oscillation was quantified from time-series luminescence intensity data obtained from either live imaging or Kronos HT (Atto) measurements using HES7 reporter-derived Axioloids. For Kronos HT based oscillation measurements, Axioloids were transferred at 72 h (48 h after aggregation) into 24-well film-bottom plates (Eppendorf) covered in 400 μl of embedding medium (+/−MG) supplemented with D-Luciferin (100 μM) (bioWORLD). Axioloid containing culture plates were cultured at 37° C. and 5% CO2. Oscillations were measured for 48 hours and each well was measured for 10 seconds with 8 min intervals. Intensity values were processed using Matlab. Temporal trend was obtained by subtracting moving average (window size of 10 h), and the detrended signal was smoothed by Savitzky-Golay filter (window size of 3 h). Instantaneous oscillation phase was calculated by applying Hilbert transform, then peak detection was performed on cosine values of instantaneous oscillation phase. Peak-to-peak period was then quantified on each n-th oscillation.

[2] = test system: human Axioloids; assay: scRNA-seq analysis of Axioloids (clusters, marker genes, differentially expressed genes); type: cell-based
Description: Axioloids were collected into wells of a 96-well plate and washed three times by transferring to another well filled with 0.1% BSA (SIGMA) in HBSS(-). Axioloids of the desired stage and number were then transferred to another well filled with 100 μl of enzyme P solution of the Neural Tissue Dissociation Kit (P) (Miltenyi Biotec) and incubated at 37° C. for 10 minutes. After adding 100 μl of 0.1% BSA in HBSS(-) Axioloids were dissociated by pipetting with an uncut P200 tip 20 times. The dissociated cells were filtered through Flowmi Cell Strainers with […] porosity (Merck) into a BSA-coated 2 ml tube (Eppendorf). Cells were washed twice in 1% BSA in HBSS(-) with centrifugation steps at 400×g for 6 minutes at room temperature. Cells were then resuspended in 1% BSA in HBSS(-) using a BSA-coated uncut-P200 tip and the concentration of the cell suspension was determined with hemocytometer. The cell suspension was subjected to library preparation using Chromium Next GEM Single Cell 3' Kit v3.1 (10× Genomics), aiming for a target cell recovery of 5000-10000. Library preparation was preformed following the instructions provided by the manufacturer 10X Genomics (CG000315 Rev B). The libraries were sequenced with NovaSeq 6000 Sequencing System (Illumina) using NovaSeq 6000 SP Reagent Kit v1.5 (100 Cycles) (Illumina, #20028401) and NovaSeq 6000 S1 Reagent Kit v1.5 (100 Cycles) (Illumina, #20028319) with the paired-end mode as described in the instructions by 10X Genomics (CG000315 Rev B). scRNA-seq data were first mapped to the human reference genome (hg38) to make matrices of UMI count for each gene and each cell using Cell Ranger (10X Genomics, version 6.0.1). Putative doublet clusters were removed using Scrublet (version 0.2.3) with the expected_doublet_rate set as 0.06^64. Then, the count data were imported into the Suerat package (version 4.0.3)^65 for the downstream analysis. […] The cell cycle scores and cell cycle phases were then determined as described before^66. […]

`CC1=C(/C=C/C(C)=C/C=C/C(C)=C/C=O)C(C)(C)CCC1` [RAL, all trans-Retinal] was tested, and the “oscillatory activity including periodicity of HES7” value [1] was “largely no effect”, the “segregation of SM and TB clusters” value ([2]; MG with vs without RA or RAL, 96 h and 120 h) was “clear segregation of the SM and TB clusters” and the “expression of TCF15, MEOX1, PAX3, PBX1, ZIC3, NR2F1, MEIS2” value ([2]; MG-embedded, exposed to RAL/RA) was “up-regulated”. The “MG-associated DEGs in SM (EMT genes, SFRP1, DKK1, FST, ID2, TFC15, PAX3)” value ([2]; addition of RA or RAL to MG) was “attenuated”.
